# Key:
# Assay in all cases: NCI 60 cell line screen
# Assay type in all cases: cell-based
# HT29 = conditions: HT29, Colon Cancer; single concentration 10^−5 M
# Description: (§1) The cytotoxic activity of nortopsintin analogs (4a-4j) was determined by the national cancer institute (NCI, Bethesda, Maryland, USA) against 60 different cancer cell lines at a single concentration of (10^-5 M). For the determination of IC50 value, we used MTT assay kit (Sigma) according to the manufacturer's protocol. HCT-116 cells were seeded into a 96-well plate at a concentration of 20,000 cells/well. After 24 h, the media was aspirated and replaced with serum-free media containing serial dilutions of the 4i compound. […] The percentage of cytotoxicity was calculated using the following equation: % Cytotoxicity = [1 - ([…])] × 100.
# SF-539 = conditions: SF-539, CNS Cancer; single concentration 10^−5 M
# Description: as §1
# NCI-H226 = conditions: NCI-H226, Non-Small Cell Lung Cancer; single concentration 10^−5 M
# Description: as §1
# SK-MEL-5 = conditions: SK-MEL-5, Melanoma; single concentration 10^−5 M
# Description: as §1
# NCI-H522 = conditions: NCI-H522, Non-Small Cell Lung Cancer; single concentration 10^−5 M
# Description: as §1
# SF-295 = conditions: SF-295, CNS Cancer; single concentration 10^−5 M
# Description: as §1
# MDA-MB-435 = conditions: MDA-MB-435, Melanoma; single concentration 10^−5 M
# Description: as §1
# SK-OV-3 = conditions: SK-OV-3, Ovarian Cancer; single concentration 10^−5 M
# Description: as §1
# NCI-H23 = conditions: NCI-H23, Non-Small Cell Lung Cancer; single concentration 10^−5 M
# Description: as §1
# NCI/ADR-RES = conditions: Ovarian Cancer, single concentration 10^−5 M
# Description: as §1
# UO-31 = conditions: UO-31, Renal Cancer; single concentration 10^−5 M
# Description: as §1
# TK-10 = conditions: TK-10, Renal Cancer; single concentration 10^−5 M
# Description: as §1
# SF-268 = conditions: SF-268, CNS Cancer; single concentration 10^−5 M
# Description: as §1
# CCRF-CEM = conditions: Leukemia, single concentration 10^−5 M
# Description: as §1
# KM12 = conditions: KM12, Colon Cancer; single concentration 10^−5 M
# Description: as §1
# SK-MEL-2 = conditions: SK-MEL-2, Melanoma; single concentration 10^−5 M
# Description: as §1
# M14 = conditions: M14, Melanoma; single concentration 10^−5 M
# Description: as §1
# HCC-2998 = conditions: HCC-2998, Colon Cancer; single concentration 10^−5 M
# Description: as §1
# PC-3 = conditions: PC-3, Prostate Cancer; single concentration 10^−5 M
# Description: as §1
# OVCAR-5 = conditions: OVCAR-5, Ovarian Cancer; single concentration 10^−5 M
# Description: as §1
# LOX IMVI = conditions: Melanoma, single concentration 10^−5 M
# Description: as §1
# DU-145 = conditions: DU-145, Prostate Cancer; single concentration 10^−5 M
# Description: as §1
# BT-549 = conditions: BT-549, Breast Cancer; single concentration 10^−5 M
# Description: as §1
# HOP-92 = conditions: HOP-92, Non-Small Cell Lung Cancer; single concentration 10^−5 M
# Description: as §1
# HS 578T = conditions: Breast Cancer, single concentration 10^−5 M
# Description: as §1
# OVCAR-3 = conditions: OVCAR-3, Ovarian Cancer; single concentration 10^−5 M
# Description: as §1
# SK-MEL-28 = conditions: SK-MEL-28, Melanoma; single concentration 10^−5 M
# Description: as §1
# MDA-MB-231/ATCC = conditions: Breast Cancer, single concentration 10^−5 M
# Description: as §1
# SW-620 = conditions: SW-620, Colon Cancer; single concentration 10^−5 M
# Description: as §1
# A498 = conditions: A498, Renal Cancer; single concentration 10^−5 M
# Description: as §1
# K-562 = conditions: K-562, Leukemia; single concentration 10^−5 M
# Description: as §1
# MALME-3M = conditions: Melanoma, single concentration 10^−5 M
# Description: as §1
# ACHN = conditions: Renal Cancer, single concentration 10^−5 M
# Description: as §1
# MCF7 = conditions: MCF7, Breast Cancer; single concentration 10^−5 M
# Description: as §1
# IGROV1 = conditions: IGROV1, Ovarian Cancer; single concentration 10^−5 M
# Description: as §1
# NCI-H322M = conditions: Non-Small Cell Lung Cancer, single concentration 10^−5 M
# Description: as §1
# HL-60 (TB) = conditions: Leukemia, single concentration 10^−5 M
# Description: as §1
smiles,measurement,setting,value
COc1cc(-c2cc(-c3c[nH]c4ccccc34)nc(-c3c[nH]c4ccccc34)c2C#N)cc(OC)c1OC [4g],Growth %,HT29,105.35%
same,Growth %,SF-539,93.66%
same,Growth %,NCI-H226,87.22%
same,Growth %,SK-MEL-5,98.25%
same,Growth %,NCI-H522,93.33%
same,Growth %,SF-295,95.05%
same,Growth %,MDA-MB-435,100.31%
same,Growth %,SK-OV-3,97.19%
same,Growth %,NCI-H23,93.03%
same,Growth %,NCI/ADR-RES,100.17%
same,Growth %,UO-31,65.92%
same,Growth %,TK-10,128.09%
same,Growth %,SF-268,97.03%
same,Growth %,CCRF-CEM,99.17%
same,Growth %,KM12,99.69%
same,Growth %,SK-MEL-2,92.02%
same,Growth %,M14,98.40%
same,Growth %,HCC-2998,107.87%
same,Growth %,PC-3,91.47%
same,Growth %,OVCAR-5,103.55%
same,Growth %,LOX IMVI,98.85%
same,Growth %,DU-145,106.13%
same,Growth %,BT-549,101.50%
same,Growth %,HOP-92,92.84%
same,Growth %,HS 578T,99.50%
same,Growth %,OVCAR-3,102.73%
same,Growth %,SK-MEL-28,107.46%
same,Growth %,MDA-MB-231/ATCC,82.84%
same,Growth %,SW-620,100.40%
same,Growth %,A498,103.11%
same,Growth %,K-562,90.08%
same,Growth %,MALME-3M,88.70%
same,Growth %,ACHN,98.52%
same,Growth %,MCF7,88.35%
same,Growth %,IGROV1,74.20%
same,Growth %,NCI-H322M,93.11%
same,Growth %,HL-60 (TB),101.32%
COc1ccc(-c2cc(-c3c[nH]c4ccccc34)nc(-c3c[nH]c4ccccc34)c2C#N)cc1 [4e],Growth %,HT29,105.49%
same,Growth %,SF-539,93.61%
same,Growth %,NCI-H226,92.14%
same,Growth %,SK-MEL-5,97.12%
same,Growth %,NCI-H522,92.71%
same,Growth %,SF-295,95.83%
same,Growth %,MDA-MB-435,104.98%
same,Growth %,SK-OV-3,94.59%
same,Growth %,NCI-H23,103.56%
same,Growth %,NCI/ADR-RES,108.38%
same,Growth %,UO-31,74.78%
same,Growth %,TK-10,141.73%
same,Growth %,SF-268,105.10%
same,Growth %,CCRF-CEM,101.65%
same,Growth %,KM12,96.65%
same,Growth %,SK-MEL-2,100.09%
same,Growth %,M14,93.75%
same,Growth %,HCC-2998,128.75%
same,Growth %,PC-3,89.91%
same,Growth %,OVCAR-5,103.69%
same,Growth %,LOX IMVI,86.06%
same,Growth %,DU-145,108.02%
same,Growth %,BT-549,97.48%
same,Growth %,HOP-92,82.07%
same,Growth %,HS 578T,100.69%
same,Growth %,OVCAR-3,96.29%
same,Growth %,SK-MEL-28,108.94%
same,Growth %,MDA-MB-231/ATCC,102.65%
same,Growth %,SW-620,113.43%
same,Growth %,A498,108.69%
same,Growth %,K-562,96.99%
same,Growth %,MALME-3M,113.82%
same,Growth %,ACHN,95.12%
same,Growth %,MCF7,90.48%
same,Growth %,IGROV1,85.18%
same,Growth %,NCI-H322M,108.08%
same,Growth %,HL-60 (TB),106.85%
N#Cc1c(-c2ccc([N+](=O)[O-])cc2)cc(-c2c[nH]c3ccccc23)nc1-c1c[nH]c2ccccc12 [4h],Growth %,HT29,111.20%
same,Growth %,SF-539,97.59%
same,Growth %,NCI-H226,87.03%
same,Growth %,SK-MEL-5,97.67%
same,Growth %,NCI-H522,95.41%
same,Growth %,SF-295,100.99%
same,Growth %,MDA-MB-435,104.27%
same,Growth %,SK-OV-3,90.72%
same,Growth %,NCI-H23,97.26%
same,Growth %,NCI/ADR-RES,96.36%
same,Growth %,UO-31,70.38%
same,Growth %,TK-10,142.08%
same,Growth %,SF-268,93.92%
same,Growth %,CCRF-CEM,103.06%
same,Growth %,KM12,98.09%
same,Growth %,SK-MEL-2,96.75%
same,Growth %,M14,97.98%
same,Growth %,HCC-2998,108.98%
same,Growth %,PC-3,93.76%
same,Growth %,OVCAR-5,105.31%
same,Growth %,LOX IMVI,92.89%
same,Growth %,DU-145,103.04%
same,Growth %,BT-549,108.68%
same,Growth %,HOP-92,98.33%
same,Growth %,HS 578T,94.79%
same,Growth %,OVCAR-3,97.76%
same,Growth %,SK-MEL-28,106.75%
same,Growth %,MDA-MB-231/ATCC,96.84%
same,Growth %,SW-620,105.72%
same,Growth %,A498,99.31%
same,Growth %,K-562,94.26%
same,Growth %,MALME-3M,102.24%
same,Growth %,ACHN,94.69%
same,Growth %,MCF7,90.39%
same,Growth %,IGROV1,81.21%
same,Growth %,NCI-H322M,95.29%
same,Growth %,HL-60 (TB),97.00%
N#Cc1c(-c2ccc(Cl)cc2)cc(-c2c[nH]c3ccccc23)nc1-c1c[nH]c2ccccc12 [4c],Growth %,HT29,107.41%
same,Growth %,SF-539,98.85%
same,Growth %,NCI-H226,96.15%
same,Growth %,SK-MEL-5,99.39%
same,Growth %,NCI-H522,96.57%
same,Growth %,SF-295,99.60%
same,Growth %,MDA-MB-435,106.56%
same,Growth %,SK-OV-3,91.24%
same,Growth %,NCI-H23,89.48%
same,Growth %,NCI/ADR-RES,98.53%
same,Growth %,UO-31,70.21%
same,Growth %,TK-10,138.81%
same,Growth %,SF-268,103.64%
same,Growth %,CCRF-CEM,101.97%
same,Growth %,KM12,102.73%
same,Growth %,SK-MEL-2,103.64%
same,Growth %,M14,102.44%
same,Growth %,HCC-2998,117.80%
same,Growth %,PC-3,100.13%
same,Growth %,OVCAR-5,105.15%
same,Growth %,LOX IMVI,101.39%
same,Growth %,DU-145,108.08%
same,Growth %,BT-549,113.43%
same,Growth %,HOP-92,99.01%
same,Growth %,HS 578T,100.65%
same,Growth %,OVCAR-3,107.09%
same,Growth %,SK-MEL-28,103.30%
same,Growth %,MDA-MB-231/ATCC,97.80%
same,Growth %,SW-620,106.55%
same,Growth %,A498,97.38%
same,Growth %,K-562,97.57%
same,Growth %,MALME-3M,107.80%
same,Growth %,ACHN,101.81%
same,Growth %,MCF7,89.99%
same,Growth %,IGROV1,91.10%
same,Growth %,NCI-H322M,103.02%
same,Growth %,HL-60 (TB),102.90%
